Several values for one entry are separate records, joined by “and”; a condition that tells them apart may be missing. Equal entries are not always repeated.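 Assay format: 96-well plates, 48-hour exposure. GI50 is the concentration that inhibits growth by half. TGI: total growth inhibition.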
Legend:
Experiment in all cases: DTP human tumour cell line panel, 48 h
SK-MEL-5 melanoma = system: SK-MEL-5 melanoma
HS 578T breast = system: HS 578T breast
SNB-75 CNS = system: SNB-75 CNS
OVCAR-4 ovarian = system: OVCAR-4 ovarian
DU-145 prostate = system: DU-145 prostate
UO-31 renal = system: UO-31 renal
TK-10 renal = system: TK-10 renal
RXF 393 renal = system: RXF 393 renal
IGROV1 ovarian = system: IGROV1 ovarian
HCC-2998 colon = system: HCC-2998 colon

Row | Structure (SMILES) | GI50 (SK-MEL-5 melanoma) | TGI (SK-MEL-5 melanoma) | GI50 (HS 578T breast) | TGI (HS 578T breast) [µM] | GI50 (SNB-75 CNS) | TGI (SNB-75 CNS) [µM] | GI50 (OVCAR-4 ovarian) | TGI (OVCAR-4 ovarian) [µM] | GI50 (DU-145 prostate) | TGI (DU-145 prostate) [µM] | GI50 (UO-31 renal) | TGI (UO-31 renal) | GI50 (TK-10 renal) | TGI (TK-10 renal) [µM] | GI50 (RXF 393 renal) | TGI (RXF 393 renal) | GI50 (IGROV1 ovarian) | TGI (IGROV1 ovarian) [µM] | GI50 (HCC-2998 colon) | TGI (HCC-2998 colon)
1 | CC(C)OC(=O)OCOP(=O)(OCOC(=O)OC(C)C)C1CCCN(O)C1=O (centres undefined) | 1.3 µM | 7.3 µM | 0.586 µM | 6.56 | 5.46 µM | > 100 | 2.32 µM | > 100 | 3.83 µM | > 100 | 0.197 µM | 68.1 µM | 1.54 µM | > 100 | 0.316 µM | 2.88 µM | 0.565 µM | 12.6 | 2.07 µM | 44.7 µM
2 | Cc1ccccc1C1N=C2Oc3ccccc3C=C2C(=O)N1 (centres undefined) | 0.674 µM | > 100 µM | 2.82 µM | > 100 | 1.51 µM | > 100 | 11.8 µM | > 100 | 2.09 µM | > 100 | 7.5 µM | > 100 µM | 8.06 µM | > 100 | 0.488 µM |  | 9.85 µM | > 100 | 4.69 µM | > 58.7 µM
3 | CC(C)c1c(C(=O)Nc2ccccc2)c(-c2ccccc2)c(-c2ccc(F)cc2)n1CC[C@@H](O)C[C@@H](O)CC(=O)O | 9.95 µM | 25.4 µM | 15.6 µM | > 100 | 2.09 µM | > 26.5 | 27.8 µM | > 100 | 52.5 µM | > 100 | 30.2 µM | > 100 µM | 45.5 µM | > 100 | 8.75 µM | 47.2 µM | 22.2 µM | > 100 | 27.4 µM | > 71.5 µM
4 | CNC(=S)N/N=C/CSC/C=N/NC(=S)NC | > 100 µM | > 100 µM | > 100 µM | > 100 | > 100 µM | > 100 |  | > 100 | > 100 µM | > 100 | > 100 µM | > 100 µM | > 100 µM | > 100 | > 100 µM | > 100 µM |  | > 100 | > 100 µM | > 100 µM
5 | COc1cc(-c2nn(-c3cccc(NC(=O)NCCNC(=O)c4ccccc4)c3)cc2-c2ccncc2)ccc1Cl | 1.55 µM | 4.06 µM | 6.29 µM | > 100 | 5.84 µM | > 100 | 3.03 µM | > 100 | 4.72 µM | > 100 | 2.76 µM | > 100 µM | 6.09 µM | 63.7 | 1.94 µM | 6.42 µM | 4.68 µM | > 100 | 5.42 µM | > 100 µM
6 | Cc1cc(C)c(CNC(=O)c2cc(Cl)c3c(c2C)O[C@@](C)(C2CCC(N(C)C)CC2)O3)c(=O)[nH]1 (some centres undefined) | 21.3 µM | 63.2 µM | 32.5 µM | > 100 | 15.2 µM | > 100 | 83.9 µM | > 100 | > 100 µM | > 100 | 45.6 µM | > 100 µM | > 100 µM | > 100 | 15.9 µM | 71.5 µM | 70.5 µM | > 100 | > 100 µM | > 100 µM
7 | COc1cc(C(=O)N[C@@H]2CCCN(C)C2)ccc1Nc1ncc2c(n1)N(C1CCCC1)CC(C)(C)C(=O)N2C | 0.123 µM | 1.56 µM | 0.188 µM | 19.9 | 0.134 µM | 4.74 | 10.8 µM | 23.4 | 0.0488 µM | 19.6 | 1.96 µM | 16.1 µM | 4.3 µM | 20.9 | 0.0427 µM | 8.99 µM | 0.396 µM | 21.7 | 0.0498 µM | 14.7 µM
8 | COc1cccc(-c2cc(-c3ccc(Nc4nc(Nc5ccc(Cl)cc5)nc(Nc5ccc(Cl)cc5)n4)cc3)nc(N)c2C#N)c1 | 2.03 µM | 6.35 µM | 2.66 µM | 11.2 | 9.75 µM | 24.6 | 4.09 µM | > 100 | 4.58 µM | 26.1 | 1.52 µM | 4.31 µM | 2.21 µM | 4.05 | 1.44 µM | 3.68 µM | 1.67 µM | 4.62 | 2.11 µM | 5.54 µM
9 | Nc1nc(N)c2nc(CNc3ccc(C(=O)NC(CCC(=O)O)C(=O)O)cc3)cnc2n1 (centres undefined) | 0.0585 µM and 0.0309 µM | > 100 µM | > 100 µM | > 100 |  | > 100 |  | > 100 | < 0.01 µM | > 100 | 0.0262 µM and < 0.01 µM | > 100 µM | 0.0736 µM | > 100 |  | > 100 µM | 0.0651 µM and < 0.01 µM | > 100 | 0.0329 µM and < 0.01 µM | > 100 µM
10 | O=C1Nc2ccc(I)cc2/C1=C/c1cc(Br)c(O)c(Br)c1 | 13 µM and 10.5 µM | > 25 µM and 23.6 µM | > 17.9 µM and 21.3 µM | > 80.4 | > 25 µM and 22.2 µM | > 90.3 | 24.8 µM and 23.3 µM | > 100 | > 23.8 µM and 25 µM | > 100 | > 16.4 µM and 18.1 µM | > 25 µM and 58.9 µM | > 25 µM and 31.1 µM | > 92.3 | > 16.6 µM and 12 µM | > 25 µM and 28.3 µM | > 25 µM and 27.8 µM | > 75.5 | 24.5 µM and 16.3 µM | > 25 µM and 33.6 µM
11 | O=c1c2cc(F)ccc2sc2c(NCCCNCCO)nc3ccc(F)cc3c12 | 1.7 µM | 3.15 µM | 1.79 µM | 4.1 | 1.51 µM | 3.27 | 2.03 µM | 4.43 | 1.76 µM | 3.19 | 1.11 µM | 2.37 µM | 1.9 µM | 3.7 | 1.51 µM | 2.95 µM | 1.25 µM | 2.65 | 1.64 µM | 3.18 µM
12 | OC1(c2ccccc2)c2ccccc2N(c2ccccc2)c2ccc(Cl)cc21 (centres undefined) | 0.186 µM | 0.432 µM | 0.332 µM | 1.81 | 0.293 µM | 1.11 | 0.313 µM | 1.39 | 0.412 µM | 1.39 | 0.38 µM | 1.51 µM | 0.3 µM | 1.01 | 0.185 µM | 0.472 µM | 0.341 µM | 1.15 | 0.258 µM | 0.795 µM
